Test [1] addresses T1, A2B Receptor (Homo sapiens, UniProt P29275).
T1 sequence (P29275 1-332): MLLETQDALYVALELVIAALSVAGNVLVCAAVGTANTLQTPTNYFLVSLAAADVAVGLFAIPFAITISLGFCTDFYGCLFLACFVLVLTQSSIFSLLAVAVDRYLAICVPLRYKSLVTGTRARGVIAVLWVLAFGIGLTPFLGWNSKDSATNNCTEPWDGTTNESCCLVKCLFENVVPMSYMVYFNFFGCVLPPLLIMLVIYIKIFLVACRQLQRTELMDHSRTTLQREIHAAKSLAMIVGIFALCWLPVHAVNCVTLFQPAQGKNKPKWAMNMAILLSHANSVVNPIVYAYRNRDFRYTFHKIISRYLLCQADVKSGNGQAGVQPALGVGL
Nature of the test: Inhibition of NECA-stimulated cAMP in HEL (human erythroleukemia) cells, Schild analysis. In kind it is cell-based. More on the design: endogenous in cells; host or cells: human erythroleukemia (HEL) cells. To be noted: for Schild analysis, type of antagonism at A2B receptors: NECA cAMP dose-response curves in human erythroleukemia cells with increasing antagonist concentrations, FIG. 1; for Kb: human (h), NECA-stimulated cAMP in HEL cells, read-out: Antagonist potency (K1 or KB) A2B Receptor. From the text:
A Schild analysis derived from dose-response curves for accumulation of cAMP produced by NECA in human erythroleukemia cells in the absence and in the presence of increasing concentrations of the antagonists. […] The intercept at the x-axis is an estimate of the Ki of the antagonists.

A further test has as its target T2, A1 Receptor (Rattus norvegicus, UniProt P25099).
T2 sequence (P25099 1-326): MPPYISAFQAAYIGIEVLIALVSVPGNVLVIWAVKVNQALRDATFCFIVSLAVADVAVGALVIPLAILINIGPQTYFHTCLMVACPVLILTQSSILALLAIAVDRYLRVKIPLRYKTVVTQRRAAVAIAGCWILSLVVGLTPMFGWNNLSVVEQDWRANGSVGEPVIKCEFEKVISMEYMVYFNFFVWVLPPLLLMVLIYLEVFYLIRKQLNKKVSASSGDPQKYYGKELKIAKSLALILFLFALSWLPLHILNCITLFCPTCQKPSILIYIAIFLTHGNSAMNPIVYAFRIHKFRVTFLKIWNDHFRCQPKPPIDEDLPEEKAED
To be noted: read-out: Antagonist potency (K1 or KB) A1 Receptor; rat (r); [3H]PIA, rat brain membranes; cited from earlier work.

The target of test [2] is T1, A2B Receptor. To be noted: background statement; cited from earlier work.
The next test deals with T3, rat A3 (Rattus norvegicus, UniProt P28647).
T3 construct: expressed in transfected cells
T3 sequence (P28647 1-320): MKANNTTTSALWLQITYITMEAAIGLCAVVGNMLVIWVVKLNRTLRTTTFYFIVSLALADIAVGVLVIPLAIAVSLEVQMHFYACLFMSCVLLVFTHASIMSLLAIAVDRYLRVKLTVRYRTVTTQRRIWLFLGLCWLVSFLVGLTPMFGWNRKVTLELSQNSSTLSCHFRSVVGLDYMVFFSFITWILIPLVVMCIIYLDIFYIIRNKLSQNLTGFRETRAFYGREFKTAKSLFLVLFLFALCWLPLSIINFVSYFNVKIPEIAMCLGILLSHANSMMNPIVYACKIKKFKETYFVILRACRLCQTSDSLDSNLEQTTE
To be noted: rat (r); [125I]APNEA, CHO cells transfected with rat A3; read-out: Antagonist potency (K1 or KB) A3 Receptor; cited from earlier work.

The target in test [3] is A2A Receptor (Rattus norvegicus, UniProt P30543). To be noted: read-out: Antagonist potency (K1 or KB) A2A Receptor; rat (r); CGS 21680 radioligand, rat striatal membranes; cited from earlier work.
Sequence of A2A Receptor (Rattus norvegicus, UniProt P30543) (P30543 whole entry): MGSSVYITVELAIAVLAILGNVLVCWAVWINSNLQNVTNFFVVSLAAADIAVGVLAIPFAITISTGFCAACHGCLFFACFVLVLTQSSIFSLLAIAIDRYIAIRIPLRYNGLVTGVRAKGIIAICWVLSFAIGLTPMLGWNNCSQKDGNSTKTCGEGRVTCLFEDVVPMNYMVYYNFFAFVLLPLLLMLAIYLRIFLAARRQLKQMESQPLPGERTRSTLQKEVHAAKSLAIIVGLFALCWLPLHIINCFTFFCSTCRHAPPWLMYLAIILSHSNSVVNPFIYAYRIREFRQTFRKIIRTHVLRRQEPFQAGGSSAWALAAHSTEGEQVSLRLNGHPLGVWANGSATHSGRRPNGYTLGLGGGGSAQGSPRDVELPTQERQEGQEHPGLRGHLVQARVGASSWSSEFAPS
In test [4] the target is T4, human A1 (Homo sapiens, UniProt P30542).
T4 construct: expressed in transfected cells
T4 sequence (P30542 1-326): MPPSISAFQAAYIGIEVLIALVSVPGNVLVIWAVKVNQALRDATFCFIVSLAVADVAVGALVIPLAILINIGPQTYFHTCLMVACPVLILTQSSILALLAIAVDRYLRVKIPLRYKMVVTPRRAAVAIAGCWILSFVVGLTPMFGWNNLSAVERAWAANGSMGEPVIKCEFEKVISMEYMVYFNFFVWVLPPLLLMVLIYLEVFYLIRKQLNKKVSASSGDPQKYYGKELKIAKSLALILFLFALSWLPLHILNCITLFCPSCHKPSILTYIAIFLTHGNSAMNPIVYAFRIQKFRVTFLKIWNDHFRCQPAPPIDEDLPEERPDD
To be noted: human (h); [3H]DPCPX, HEK-293 cells transfected with human A1; read-out: Antagonist potency (K1 or KB) A1 Receptor; cited from earlier work.

Test [5] concerns the target T4, human A1. Nature of the test: Displacement of [3H]DPCPX from membranes of CHO cells transfected with human A1. In kind it is binding. To be noted: read-out: Antagonist potency (K1 or KB) A1 Receptor.
For another test, the target named is T5, human A3 (Homo sapiens, UniProt P0DMS8).
T5 construct: expressed in transfected cells
T5 sequence (P0DMS8 1-318): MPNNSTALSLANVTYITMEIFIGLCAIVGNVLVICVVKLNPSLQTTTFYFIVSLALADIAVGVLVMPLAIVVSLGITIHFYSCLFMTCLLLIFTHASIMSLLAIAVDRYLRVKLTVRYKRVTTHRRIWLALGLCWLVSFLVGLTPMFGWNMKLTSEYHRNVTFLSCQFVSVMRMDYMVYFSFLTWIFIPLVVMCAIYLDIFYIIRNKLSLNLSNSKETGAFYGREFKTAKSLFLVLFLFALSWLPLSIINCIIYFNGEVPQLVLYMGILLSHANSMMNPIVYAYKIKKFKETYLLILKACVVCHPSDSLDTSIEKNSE
The test can be described thus: Displacement of [3H]NECA from CHO cells transfected with human A3. Type of test: binding. To be noted: read-out: Antagonist potency (K1 or KB) A3 Receptor.

For test [6], the target named is T6, A2A Receptor (Homo sapiens, UniProt P29274).
T6 construct: endogenous in cells; host or cells: HMC-1 cells
T6 sequence (P29274 whole entry): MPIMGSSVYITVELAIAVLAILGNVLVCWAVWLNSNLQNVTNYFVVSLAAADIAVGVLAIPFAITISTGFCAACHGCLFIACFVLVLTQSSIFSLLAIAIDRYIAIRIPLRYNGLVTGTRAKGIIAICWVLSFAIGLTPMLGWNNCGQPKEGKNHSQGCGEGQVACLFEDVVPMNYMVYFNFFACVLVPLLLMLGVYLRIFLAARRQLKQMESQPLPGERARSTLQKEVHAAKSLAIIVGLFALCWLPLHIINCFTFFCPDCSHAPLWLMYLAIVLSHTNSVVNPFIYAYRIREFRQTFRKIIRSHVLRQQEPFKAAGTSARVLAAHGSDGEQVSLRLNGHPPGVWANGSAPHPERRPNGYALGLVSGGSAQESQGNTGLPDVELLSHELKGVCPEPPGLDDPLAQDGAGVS
Nature of the test: Inhibition of CGS 21680-stimulated cAMP in HMC-1 cells. To be noted: human (h), read-out: Antagonist potency (K1 or KB) A2A Receptor. In kind it is cell-based.

Where two headings read alike, the source gives them in different places.

As to `CCCn1c(=O)c2[nH]c(-c3ccc(S(=O)(=O)O)cc3)nc2n(CCC)c1=O` [DPSPX, 1,3-dipropyl-8-p-sulfophenylxanthine], the “Schild analysis, type of antagonism at A2B receptors” value (“Schild analysis, type of antagonism” below) on A2B Receptor [1] is given as “competitive antagonism”. In addition, the Kb on A2B Receptor [1] is 0.14 µM; on A1 Receptor, 0.14 µM; on rat A3 it was over 100 µM; at A2A Receptor [3] it was 0.79 µM. Besides, on A2B Receptor [2], the “Affinity of xanthine antagonists at A2B receptors” value is reported as “mid to high nM range”.

In the case of `CCCn1c(=O)[nH]c(=O)c2nc[nH]c21` [Enprofylline], the “Schild analysis, type of antagonism” value at A2B Receptor [1] is “competitive antagonism”. For the same compound, the antagonist dissociation constant (Kb) at human A1 [4] is 156 µM.

On to `CC(C)Cn1c(=O)[nH]c(=O)c2[nH]c(N3CCCC3)nc21` [Formula (I)], for which the Kb at human A1 [5] was 31 µM; at A2B Receptor [1], 0.525 µM; at human A3, 53 µM; at A2A Receptor [6] it was 20 µM. For the same compound, the “Schild analysis, type of antagonism” value on A2B Receptor [1] is listed as “competitive antagonism”. Besides, the “Potency compared with enprofylline” value at A2B Receptor [1] (comparison from the potency table) is given as “much higher than that of enprofylline”.

As for `CCNC(=O)[C@H]1O[C@@H](n2cnc3c(NCc4ccccc4)ncnc32)[C@@H](O)C1O` (stereo partly shown) [N^6-benzyl NECA], the “Agonist activity or affinity at A2B receptors” value at A2B Receptor [2] is “very low affinity”.

Regarding `Cn1c(=O)c2[nH]cnc2n(C)c1=O` [Theophylline], the Kb on rat A3 is over 100 µM.

The record behind these values is patent US6815446B1, “Selective antagonists of A2B adenosine receptors” (Vanderbilt University, priority 1999, dated 2004).
